Experimental data from patent publication US5552552A, “Crystalline salts of optically active aminocoumaran derivatives, their production and use” (Takeda Chemical Industries, Ltd., priority 1992, dated 1996).
Where a name gives a salt, the structure may show the parent alone.

How the values were obtained:
[1] = system: behavioral change induced by spinal intrathecal injection of FeCl2 (ferrous chloride); assay: Change of behavior induced by spinal intrathecal injection of FeCl2 in mice; type: in vivo, male Slc:ICR mice (printed "SIc: IcR mice"); details: 25 mg/kg oral; for Mean Score, 25 mg/kg Administered: behavior observed 15 min to 1 h after intrathecal 50 mM FeCl2, 5 μl/mouse, 10 mice per group, score 0 (normal) to 5 (death); for Percent Suppression (%): calculated from the mean behavioral scores, FeCl2 intrathecal, mice
Source text: Effect on drugs on the change of behavior induced by spinal in intrathecal injection of FeCl2 in mice.
Male SIc: IcR mice (5 weeks) (10 mice per group) were used. […] The following criteria were used to score behavioral changes.
1: Frequent bites to lower limbs and lower abdomen.
2: One of the following three responses is seen: a) Violent bites to lower half of body, with occasionally rolling b) Hypersensitive aggressive behavior in response to external stimulation […]
4: Tonic convulsion, or unilateral or bilateral limb paralysis […]
Percent inhibitions were calculated from the scores obtained as above (percent inhibition=[(5-score)/5]×100). The subject compound salt was orally administered during the 30-minute period following administration of ferrous chloride.

[2] = in words; free form (racemate), as described in EP-A-0483772; cited from earlier work
[3] = Stability / hygroscopicity (no method); type: physicochemical; details: in words; derivative (B), racemate; no data

hygroscopicity and stability [3] | Compound | Mean Score, 25 mg/kg Administered [1] | Percent Suppression (%) [1] | water solubility of the free form [2]
– | Cc1c(C)c2c(c(C)c1N)C[C@](C)(CN1CCC(c3ccccc3)CC1)O2 [Example 4, (R)--(-)-5-amino-2,4,6,7-tetramethyl-2-(4-phenylpiperidinomethyl)-2,3-dihydrobenzo [b]furan dihydrochloride] | 1.3 | 72.3% | –
hygroscopic and hence unstable | Cc1c(C)c2c(c(C)c1N)CC(C)(CN1CCC(c3ccccc3)CC1)O2 (racemic) [Derivative (B), 5-amino-2,4,6,7-tetramethyl-2-(4-phenylpiperidinomethyl)-2,3-dihydrobenzo[b]furan] | – | – | sparingly water-soluble
– | Cc1c(C)c2c(c(C)c1N)C[C@@](C)(CN1CCC(c3ccccc3)CC1)O2 [Example 3, (S)--(+)-5-amino-2,4,6,7-tetramethyl-2-(4-phenylpiperidinomethyl)-2,3-dihydrobenzo [b]furan dihydrochloride] | 0.2 | 96% | –
